Data from patent US5840684A, “Glycopeptide antibiotic derivatives” (Eli Lilly and Company, priority 1995, dated 1998).
Converted amounts (≈) assume the structure as drawn.

What was measured:
[1] = tested on: vancomycin-resistant enterococci; test: broth micro-dilution, mean geometric MIC; assay type: cell-based, Enterococcus faecium and Enterococcus faecalis; conditions: enterococci, 24-hour incubation
[2] = tested on: Enterococcus gallinarum 245; test: broth micro-dilution MIC; assay type: cell-based; conditions: Enterococcus gallinarum 245
Experimental: (§1) The formula I compounds have in vitro and in vivo activity against Gram-positive pathogenic bacteria. The MIC's were determined using a standard broth micro-dilution assay.

[3] = tested on: Streptococcus pneumoniae P1; test: broth micro-dilution MIC; assay type: cell-based
Experimental: as §1

Entercoccus faecium 2041 = test: broth micro-dilution MIC; assay type: cell-based; conditions: Entercoccus faecium 2041
Experimental: as §1

[4] = tested on: vancomycin-susceptible enterococci; test: broth micro-dilution, mean geometric MIC; assay type: cell-based, Enterococcus faecium and Enterococcus faecalis; conditions: enterococci, 24-hour incubation
[5] = tested on: Staphylococcus aureus SA1199A; test: broth micro-dilution MIC; assay type: cell-based
Experimental: (§2) The MIC's were determined using a standard broth micro-dilution assay.

[6] = tested on: Entercoccus faecium 180-1; test: broth micro-dilution MIC; assay type: cell-based
Experimental: as §2

Entercoccus faecium 276 = test: broth micro-dilution MIC; assay type: cell-based
Experimental: as §2

[7] = tested on: Streptococcus pyogenes C203; test: broth micro-dilution MIC; assay type: cell-based
Experimental: as §2

[8] = tested on: Staphylococcus aureus 489; test: broth micro-dilution MIC; assay type: cell-based
Experimental: as §2

[9] = tested on: Staphylococcus aureus X778; test: broth micro-dilution MIC; assay type: cell-based
Experimental: as §2

[10] = tested on: Staphylococcus aureus SA1199; test: broth micro-dilution MIC; assay type: cell-based
Experimental: as §2

[11] = tested on: Staphylococcus aureus X400; test: broth micro-dilution MIC; assay type: cell-based
Experimental: as §2

[12] = tested on: Staphylococcus aureus S13E; assay type: cell-based
Experimental: as §2

[13] = tested on: Staphylococcus epidermidis 270; test: broth micro-dilution MIC; assay type: cell-based
Experimental: as §1

[14] = tested on: Staphylococcus haemolyticus 105; test: broth micro-dilution MIC; assay type: cell-based
Experimental: as §1

Entercoccus faecium 180 = test: broth micro-dilution MIC; assay type: cell-based; conditions: Entercoccus faecium 180
Experimental: as §1

[15] = tested on: Staphylococcus haemolyticus 415; test: broth micro-dilution MIC; assay type: cell-based
Experimental: as §1

[16] = tested on: Staphylococcus aureus 446; test: broth micro-dilution MIC; assay type: cell-based
Experimental: as §2

[17] = tested on: Staphylococcus aureus SA1199B; assay type: cell-based
Experimental: as §2

[18] = tested on: Staphylococcus aureus 447; test: broth micro-dilution MIC; assay type: cell-based
Experimental: as §2

Structure (SMILES)	mean geometric MIC, Vancomycin Resistant Strains [1]	MIC [2]	MIC [3]	MIC (Entercoccus faecium 2041)	mean geometric MIC, Vancomycin Sensitive Strains [4]	MIC [5]	MIC [6]	MIC (Entercoccus faecium 276)	MIC [7]	MIC [8]	MIC [9]	MIC [10]	MIC [11]	MIC [12]	MIC [14]	MIC (Entercoccus faecium 180)	MIC [15]	MIC [16]	MIC [17]	MIC [18]	further results
CNC(CC(C)C)C(=O)NC1C(=O)NC(CC(N)=O)C(=O)NC2C(=O)NC3C(=O)NC(C(=O)NC(C(=O)O)c4cc(O)cc(O)c4-c4cc3ccc4O)C(OC3CC(C)(N)C(O)C(C)O3)c3ccc(c(Cl)c3)Oc3cc2cc(c3OC2OC(CO)C(O)C(O)C2OC2CC(C)(NCc3cccc4c([N+](=O)[O-])cccc34)C(O)C(C)O2)Oc2ccc(cc2Cl)C1O (stereo not shown) [Compound 25]	4.0 µg/mL	≤ 0.06 µg/mL	≤ 0.06 µg/mL	0.25 µg/mL (≈ 0.141 µM)	0.22 µg/mL	≤ 0.06 µg/mL	≤ 0.06 µg/mL	0.25 µg/mL (≈ 0.141 µM)	≤ 0.06 µg/mL	≤ 0.06 µg/mL	≤ 0.06 µg/mL	≤ 0.06 µg/mL	≤ 0.06 µg/mL	≤ 0.06 µg/mL							
CNC(CC(C)C)C(=O)NC1C(=O)NC(CC(N)=O)C(=O)NC2C(=O)NC3C(=O)NC(C(=O)NC(C(=O)O)c4cc(O)cc(O)c4-c4cc3ccc4O)C(OC3CC(C)(N)C(O)C(C)O3)c3ccc(c(Cl)c3)Oc3cc2cc(c3OC2OC(CO)C(O)C(O)C2OC2CC(C)(NCCc3ccc(Oc4ccccc4)cc3)C(O)C(C)O2)Oc2ccc(cc2Cl)C1O (stereo not shown) [Compound 33]	2.8 µg/mL			≤ 0.06 µg/mL	0.18 µg/mL	≤ 0.06 µg/mL	≤ 0.06 µg/mL	≤ 0.06 µg/mL		≤ 0.06 µg/mL	0.5 µg/mL (≈ 0.28 µM)	1 µg/mL (≈ 0.559 µM)		≤ 0.06 µg/mL	2 µg/mL (≈ 1.12 µM)	2 µg/mL (≈ 1.12 µM)	8 µg/mL (≈ 4.47 µM)	4 µg/mL (≈ 2.24 µM)			MIC [13]: 2 µg/mL (≈ 1.12 µM)
CNC(CC(C)C)C(=O)NC1C(=O)NC(CC(N)=O)C(=O)NC2C(=O)NC3C(=O)NC(C(=O)NC(C(=O)O)c4cc(O)cc(O)c4-c4cc3ccc4O)C(OC3CC(C)(N)C(O)C(C)O3)c3ccc(c(Cl)c3)Oc3cc2cc(c3OC2OC(CO)C(O)C(O)C2OC2CC(C)(NCc3ccc(-c4ccc(OC)cc4)cc3)C(O)C(C)O2)Oc2ccc(cc2Cl)C1O (stereo not shown) [Compound 54]	1.7 µg/mL	0.5 µg/mL (≈ 0.28 µM)	≤ 0.06 µg/mL	≤ 0.06 µg/mL	0.56 µg/mL	≤ 0.06 µg/mL	≤ 0.06 µg/mL	1 µg/mL (≈ 0.559 µM)	≤ 0.06 µg/mL	≤ 0.06 µg/mL	≤ 0.06 µg/mL	0.5 µg/mL (≈ 0.28 µM)	≤ 0.06 µg/mL	0.5 µg/mL (≈ 0.28 µM)	2 µg/mL (≈ 1.12 µM)	1 µg/mL (≈ 0.559 µM)	1 µg/mL (≈ 0.559 µM)	1 µg/mL (≈ 0.559 µM)	1 µg/mL (≈ 0.559 µM)		
CNC(CC(C)C)C(=O)NC1C(=O)NC(CC(N)=O)C(=O)NC2C(=O)NC3C(=O)NC(C(=O)NC(C(=O)O)c4cc(O)cc(O)c4-c4cc3ccc4O)C(OC3CC(C)(N)C(O)C(C)O3)c3ccc(c(Cl)c3)Oc3cc2cc(c3OC2OC(CO)C(O)C(O)C2OC2CC(C)(NCCc3ccccc3OCc3ccccc3)C(O)C(C)O2)Oc2ccc(cc2Cl)C1O (stereo not shown) [Compound 59]	51 µg/mL	1 µg/mL (≈ 0.555 µM)	≤ 0.06 µg/mL	0.5 µg/mL (≈ 0.277 µM)	0.42 µg/mL	≤ 0.06 µg/mL	≤ 0.06 µg/mL	0.125 µg/mL (≈ 0.0693 µM)	≤ 0.06 µg/mL	0.125 µg/mL (≈ 0.0693 µM)	≤ 0.06 µg/mL	0.125 µg/mL (≈ 0.0693 µM)		0.125 µg/mL (≈ 0.0693 µM)	8 µg/mL (≈ 4.44 µM)	8 µg/mL (≈ 4.44 µM)	8 µg/mL (≈ 4.44 µM)	0.5 µg/mL (≈ 0.277 µM)	0.5 µg/mL (≈ 0.277 µM)	1 µg/mL (≈ 0.555 µM)	MIC [13]: 1 µg/mL (≈ 0.555 µM)
CNC(CC(C)C)C(=O)NC1C(=O)NC(CC(N)=O)C(=O)NC2C(=O)NC3C(=O)NC(C(=O)NC(C(=O)O)c4cc(O)cc(O)c4-c4cc3ccc4O)C(OC3CC(C)(N)C(O)C(C)O3)c3ccc(c(Cl)c3)Oc3cc2cc(c3OC2OC(CO)C(O)C(O)C2OC2CC(C)(NCC3CCC(c4ccccc4)C3)C(O)C(C)O2)Oc2ccc(cc2Cl)C1O (stereo not shown) [Compound 140]	6.7 µg/mL	8 µg/mL (≈ 4.57 µM)	≤ 0.06 µg/mL	≤ 0.06 µg/mL	0.19 µg/mL	≤ 0.06 µg/mL	≤ 0.06 µg/mL	0.5 µg/mL (≈ 0.286 µM)	≤ 0.06 µg/mL	≤ 0.06 µg/mL		≤ 0.06 µg/mL	≤ 0.06 µg/mL	≤ 0.06 µg/mL	2 µg/mL (≈ 1.14 µM)	1 µg/mL (≈ 0.571 µM)	8 µg/mL (≈ 4.57 µM)		≤ 0.06 µg/mL		
CNC(CC(C)C)C(=O)NC1C(=O)NC(CC(N)=O)C(=O)NC2C(=O)NC3C(=O)NC(C(=O)NC(C(=O)O)c4cc(O)cc(O)c4-c4cc3ccc4O)C(OC3CC(C)(N)C(O)C(C)O3)c3ccc(c(Cl)c3)Oc3cc2cc(c3OC2OC(CO)C(O)C(O)C2OC2CC(C)(NCc3ccccc3O)C(O)C(C)O2)Oc2ccc(cc2Cl)C1O (stereo not shown) [Compound 169]	19 µg/mL	4 µg/mL (≈ 2.35 µM)	≤ 0.06 µg/mL	≤ 0.06 µg/mL	0.50 µg/mL	≤ 0.06 µg/mL	≤ 0.06 µg/mL	≤ 0.06 µg/mL	≤ 0.06 µg/mL	≤ 0.06 µg/mL	≤ 0.06 µg/mL	≤ 0.06 µg/mL	≤ 0.06 µg/mL	≤ 0.06 µg/mL	2 µg/mL (≈ 1.18 µM)	1 µg/mL (≈ 0.589 µM)	4 µg/mL (≈ 2.35 µM)		0.125 µg/mL (≈ 0.0736 µM)	2 µg/mL (≈ 1.18 µM)	
CNC(CC(C)C)C(=O)NC1C(=O)NC(CC(N)=O)C(=O)NC2C(=O)NC3C(=O)NC(C(=O)NC(C(=O)O)c4cc(O)cc(O)c4-c4cc3ccc4O)C(OC3CC(C)(N)C(O)C(C)O3)c3ccc(c(Cl)c3)Oc3cc2cc(c3OC2OC(CO)C(O)C(O)C2OC2CC(C)(NCc3ccc(Oc4ccc(Cl)cc4)cc3)C(O)C(C)O2)Oc2ccc(cc2Cl)C1O (stereo not shown) [Compound 240]	1.19 µg/mL	2 µg/mL (≈ 1.11 µM)	≤ 0.06 µg/mL	≤ 0.06 µg/mL	0.055 µg/mL	≤ 0.06 µg/mL	≤ 0.06 µg/mL	0.5 µg/mL (≈ 0.276 µM)		1 µg/mL (≈ 0.553 µM)	0.5 µg/mL (≈ 0.276 µM)	0.5 µg/mL (≈ 0.276 µM)		0.5 µg/mL (≈ 0.276 µM)	1 µg/mL (≈ 0.553 µM)	≤ 0.06 µg/mL	2 µg/mL (≈ 1.11 µM)	1 µg/mL (≈ 0.553 µM)		0.5 µg/mL (≈ 0.276 µM)	
